From ChEMBL document CHEMBL1201862, “PubChem BioAssay data set” (2004)
Calls of active or inactive are those of the source.

Key:
[1] = target: E3 ubiquitin-protein ligase Mdm2 (Homo sapiens, UniProt Q00987); test: enhancers of MDM2-luciferase reporter signal, concentration-effect titration, project on inhibitors of MDM2 ubiquitin ligase, cellular assay, luminescent readout, 384-well plate format (AID 1394); type: functional;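 further: MDM2 E3 inhibitors raise luminescence so EC50 is for signal enhancement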
Chain of E3 ubiquitin-protein ligase Mdm2 (Q00987 whole entry): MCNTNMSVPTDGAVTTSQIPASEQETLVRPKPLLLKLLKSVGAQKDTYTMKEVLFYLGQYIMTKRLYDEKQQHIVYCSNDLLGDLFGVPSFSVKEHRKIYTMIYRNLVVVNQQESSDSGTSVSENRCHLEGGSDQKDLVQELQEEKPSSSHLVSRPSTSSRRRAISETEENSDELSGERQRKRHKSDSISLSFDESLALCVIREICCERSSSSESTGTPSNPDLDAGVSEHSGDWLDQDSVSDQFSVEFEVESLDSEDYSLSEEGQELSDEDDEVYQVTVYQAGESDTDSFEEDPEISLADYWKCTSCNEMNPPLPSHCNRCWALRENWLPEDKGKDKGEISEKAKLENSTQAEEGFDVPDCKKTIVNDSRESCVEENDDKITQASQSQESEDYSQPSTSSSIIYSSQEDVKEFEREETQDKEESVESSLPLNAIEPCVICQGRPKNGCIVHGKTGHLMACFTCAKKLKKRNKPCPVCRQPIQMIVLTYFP

[2] = cytotoxicity in HPDE-C7 cells, cell-based, fluorescence, HTS (AID 430); type: functional; conditions: Homo sapiens
[3] = cytotoxicity in KRAS-transformed pancreatic duct cells, primary screen, cell-based, fluorescence, HTS (AID 431); type: functional; conditions: Homo sapiens;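 further: cell line used: HPDE-C7K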
[4] = target: T1, Long-chain-fatty-acid--AMP ligase FadD28 (Mycobacterium tuberculosis, UniProt P9WQ59); test: Fluorescence polarization aasay to screen for inhibitors that compete for the binding of FadD28 to a bisubstrate Measured in Biochemical System Using Plate Reader - 2147-01_Inhibitor_Dose_CherryPick_Activity.; type: functional, Mycobacterium tuberculosis H37Rv
T1 sequence (P9WQ59 whole entry): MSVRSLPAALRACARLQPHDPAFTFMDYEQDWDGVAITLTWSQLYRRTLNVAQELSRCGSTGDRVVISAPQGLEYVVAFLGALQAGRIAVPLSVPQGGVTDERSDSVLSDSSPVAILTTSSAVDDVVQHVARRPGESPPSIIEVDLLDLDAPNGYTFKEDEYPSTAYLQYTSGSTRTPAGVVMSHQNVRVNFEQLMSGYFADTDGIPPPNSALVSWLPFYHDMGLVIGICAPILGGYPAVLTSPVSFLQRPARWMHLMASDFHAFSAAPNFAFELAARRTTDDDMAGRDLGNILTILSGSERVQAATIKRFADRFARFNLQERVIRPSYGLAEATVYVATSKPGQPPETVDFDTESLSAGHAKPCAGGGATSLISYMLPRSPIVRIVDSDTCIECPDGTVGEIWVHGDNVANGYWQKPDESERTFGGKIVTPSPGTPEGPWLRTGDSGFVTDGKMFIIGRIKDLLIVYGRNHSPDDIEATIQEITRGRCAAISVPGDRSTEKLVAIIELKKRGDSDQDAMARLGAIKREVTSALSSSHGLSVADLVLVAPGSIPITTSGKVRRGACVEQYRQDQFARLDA

[5] = target: T2, Small ubiquitin-related modifier 1 (Homo sapiens, UniProt P63165); test: inhibitors of SUMO1 peptide binding, dose response, biochemical, fluorescence polarization, uHTS hits (AID 624382); type: functional; conditions: read-out: IC50_Mean
T2 sequence (P63165 whole entry): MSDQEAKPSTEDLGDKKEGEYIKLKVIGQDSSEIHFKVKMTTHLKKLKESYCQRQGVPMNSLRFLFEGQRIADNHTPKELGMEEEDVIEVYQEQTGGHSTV

[6] = target: T2, Small ubiquitin-related modifier 1; test: inhibitors of SUMO1 partner interactions, dose response, biochemical, FRET (AID 624383); type: functional; conditions: read-out: IC50_Mean
[7] = Luminescence-based cell-based high throughput dose response assay to identify activators of the DAF-12 from the parasite S. stercoralis (ssDAF-12).; type: functional
[8] = target: T3, Oxysterols receptor LXR-beta (Homo sapiens, UniProt P55055); test: LXR agonists, Gal4 luciferase reporter, dose response, counter-screen for ssDAF-12 agonist project, cell-based, luminescence, HEK293, S. stercoralis campaign (AID 720737); type: functional; conditions: read-out: IC50 (the source's name)
T3 sequence (P55055 whole entry): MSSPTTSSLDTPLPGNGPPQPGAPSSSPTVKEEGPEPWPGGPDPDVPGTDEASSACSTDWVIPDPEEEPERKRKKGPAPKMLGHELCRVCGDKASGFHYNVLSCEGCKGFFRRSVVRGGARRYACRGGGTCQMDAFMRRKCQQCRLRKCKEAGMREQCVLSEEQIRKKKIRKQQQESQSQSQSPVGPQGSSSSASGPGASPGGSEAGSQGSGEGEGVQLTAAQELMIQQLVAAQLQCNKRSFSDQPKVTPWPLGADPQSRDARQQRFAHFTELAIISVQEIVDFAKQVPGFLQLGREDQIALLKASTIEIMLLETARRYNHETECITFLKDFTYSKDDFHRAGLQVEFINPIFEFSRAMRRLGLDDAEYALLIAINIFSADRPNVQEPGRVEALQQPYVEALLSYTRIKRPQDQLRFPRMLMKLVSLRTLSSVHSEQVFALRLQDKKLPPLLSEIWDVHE

Paired box protein Pax-8 = Paired box protein Pax-8 (Homo sapiens, UniProt Q06710); test: inhibitors of PAX8-driven TPO luciferase reporter, dose response, RMG-I cells, cherry-pick (AID 687027); type: functional, cell-based;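 further: luciferase reporter driven by Pax8 target thyroperoxidase promoter measured by SteadyGlo luminescence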
Chain of Paired box protein Pax-8 (Q06710 whole entry): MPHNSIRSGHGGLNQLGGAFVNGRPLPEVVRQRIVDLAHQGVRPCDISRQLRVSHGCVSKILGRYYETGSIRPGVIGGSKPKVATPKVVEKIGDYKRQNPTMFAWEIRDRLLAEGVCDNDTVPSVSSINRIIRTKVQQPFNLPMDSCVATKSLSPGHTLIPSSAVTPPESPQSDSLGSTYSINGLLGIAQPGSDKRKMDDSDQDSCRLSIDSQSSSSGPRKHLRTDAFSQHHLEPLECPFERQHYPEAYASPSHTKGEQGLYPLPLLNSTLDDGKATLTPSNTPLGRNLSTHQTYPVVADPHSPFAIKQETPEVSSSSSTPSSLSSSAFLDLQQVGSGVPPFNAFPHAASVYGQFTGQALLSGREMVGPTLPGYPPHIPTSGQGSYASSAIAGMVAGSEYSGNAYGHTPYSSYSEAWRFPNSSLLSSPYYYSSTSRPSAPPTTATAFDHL

[9] = NIH:OVCAR-3 ovarian cancer cell cytotoxicity, dose response, PAX8 inhibitor project, plate reader, dry powder samples (AID 743044); type: functional, cell-based
[10] = IGROV1 ovarian cancer cell cytotoxicity, dose response, PAX8 inhibitor project, plate reader, dry powder samples (AID 743043); type: functional, cell-based; conditions: IGROV-1
[11] = non-specific cell cytotoxicity, dose response, cytotoxicity control for PAX8 inhibitor project, plate reader, dry powder samples (AID 743021); type: functional, cell-based
[12] = cytotoxicity in OVCAR8 ovarian cancer cells, dose response, PAX8 project, cell-based, plate reader, dry powder samples (AID 743197); type: functional; conditions: OVCAR-8
fMet-Leu-Phe receptor = target: T4, fMet-Leu-Phe receptor (Homo sapiens, UniProt P21462); test: FPR ligands, dose response (AID 519); type: functional
T4 sequence (P21462 whole entry): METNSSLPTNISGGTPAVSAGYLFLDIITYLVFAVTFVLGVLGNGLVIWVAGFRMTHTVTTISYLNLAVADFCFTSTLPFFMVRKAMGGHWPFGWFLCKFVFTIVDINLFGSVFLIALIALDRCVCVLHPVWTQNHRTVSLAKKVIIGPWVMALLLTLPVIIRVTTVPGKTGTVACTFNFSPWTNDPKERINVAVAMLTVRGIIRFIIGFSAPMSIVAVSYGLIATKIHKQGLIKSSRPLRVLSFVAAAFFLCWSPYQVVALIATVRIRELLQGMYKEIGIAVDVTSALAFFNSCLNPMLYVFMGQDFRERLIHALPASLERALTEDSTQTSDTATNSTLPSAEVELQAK

cells [13] = type: functional, cell-based
cells [14] = type: functional, cell-based; remark: listed apart in the source
[15] = growth suppression of PTEN-null colon cells, dose response, cell-based, HCT116 PTEN knockout (AID 1047); type: functional;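 further: HCT116 colon tumor cells with PTEN knocked out; cells exposed to compound for 60 hours before readout; potency for loss of cell viability measured by luminescence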
[16] = growth suppression of beta-catenin-knockout colon cells, dose response, cell-based, HCT116, human colon tumor (AID 1045); type: functional;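 further: HCT116 colon tumor cells with beta catenin knocked out; cells exposed to compound for 60 hours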
[17] = cytotoxicity in HEK-293T cells, dose response, cytotoxicity control for BCR NF-kB inhibitor project, luminescence, B-cell screen hits (AID 489021); type: functional, cell-based;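 further: HEK-293T cells carrying an NF-kB luciferase reporter; cells exposed to compound for about 14 hours before viability readout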
[18] = target: Voltage-gated inwardly rectifying potassium channel KCNH2 (Homo sapiens, UniProt Q12809); test: hERG protection from proarrhythmic block, potency, dose response, cell-based, thallium flux (AID 2121); type: ADME
Chain of Voltage-gated inwardly rectifying potassium channel KCNH2 (Q12809 whole entry): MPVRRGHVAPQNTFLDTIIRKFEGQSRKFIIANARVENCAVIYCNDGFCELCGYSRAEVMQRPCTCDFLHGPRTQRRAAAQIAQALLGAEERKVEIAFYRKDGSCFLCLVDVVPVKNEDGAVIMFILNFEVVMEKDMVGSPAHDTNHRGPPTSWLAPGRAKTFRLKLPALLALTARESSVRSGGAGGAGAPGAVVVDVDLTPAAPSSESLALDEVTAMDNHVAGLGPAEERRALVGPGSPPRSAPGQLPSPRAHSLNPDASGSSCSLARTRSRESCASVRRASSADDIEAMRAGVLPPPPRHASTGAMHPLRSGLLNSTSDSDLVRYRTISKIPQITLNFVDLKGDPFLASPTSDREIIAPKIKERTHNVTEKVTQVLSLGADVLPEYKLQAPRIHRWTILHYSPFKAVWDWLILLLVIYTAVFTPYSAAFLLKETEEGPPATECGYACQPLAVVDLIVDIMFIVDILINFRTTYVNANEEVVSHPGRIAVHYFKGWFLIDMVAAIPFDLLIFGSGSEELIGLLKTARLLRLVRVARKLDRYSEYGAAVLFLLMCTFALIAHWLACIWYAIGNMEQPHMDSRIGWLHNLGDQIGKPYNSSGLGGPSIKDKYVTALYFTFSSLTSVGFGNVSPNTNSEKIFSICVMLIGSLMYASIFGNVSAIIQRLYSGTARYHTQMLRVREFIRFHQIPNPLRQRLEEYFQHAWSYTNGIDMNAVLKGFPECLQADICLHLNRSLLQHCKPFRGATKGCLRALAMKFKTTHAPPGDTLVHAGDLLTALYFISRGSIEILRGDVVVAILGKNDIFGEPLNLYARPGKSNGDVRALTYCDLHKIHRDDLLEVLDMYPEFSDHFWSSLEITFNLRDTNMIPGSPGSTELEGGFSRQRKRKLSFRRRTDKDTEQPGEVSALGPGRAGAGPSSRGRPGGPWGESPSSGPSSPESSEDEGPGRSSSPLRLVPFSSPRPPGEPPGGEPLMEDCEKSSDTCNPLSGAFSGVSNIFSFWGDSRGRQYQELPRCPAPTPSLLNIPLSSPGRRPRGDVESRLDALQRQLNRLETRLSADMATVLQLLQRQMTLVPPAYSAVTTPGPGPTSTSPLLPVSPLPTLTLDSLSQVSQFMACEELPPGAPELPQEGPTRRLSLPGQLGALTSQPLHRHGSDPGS

P388/ADR = test: cells; type: functional; conditions: Mus musculus
SN12K1 = test: cells; type: functional; conditions: Homo sapiens, SN12K1
P388 = test: cells; type: functional; conditions: Mus musculus, P388
[19] = target: Delta-type opioid receptor (Homo sapiens, UniProt P41143); test: Counterscreen for agonists of heterodimerization of the mu 1 (OPRM1) and delta 1 (OPRD1) opioid receptors: Luminescence-based cell-based high throughput dose response assay to identify agonists of OPRD1 homodimerization. [Related pubchem assays (depositor defined):AID504326, AID504355, AID504692, AID504904, AID504905]; type: functional
Mu-type opioid receptor = Mu-type opioid receptor (Homo sapiens, UniProt P35372); test: Counterscreen for agonists of heterodimerization of the mu 1 (OPRM1) and delta 1 (OPRD1) opioid receptors: Luminescence-based cell-based high throughput dose response assay to identify agonists of OPRM1 homodimerization.; type: functional;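 further: U2OS cells expressing OPRM1 and beta-arrestin as split beta-galactosidase partners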
[20] = target: 5-hydroxytryptamine receptor 5A (Homo sapiens, UniProt P47898); test: Counterscreen for agonists of OPRM1-OPRD1 heterodimerization: luminescence-based cell-based high throughput dose response assay to identify agonists of 5-hydroxytryptamine (serotonin) 5A receptor (HTR5A). [Related pubchem assays (depositor defined):AID504326, AID504355, AID504692, AID504904, AID504905]; type: functional
Chain of 5-hydroxytryptamine receptor 5A (P47898 whole entry, the tested form may be a part): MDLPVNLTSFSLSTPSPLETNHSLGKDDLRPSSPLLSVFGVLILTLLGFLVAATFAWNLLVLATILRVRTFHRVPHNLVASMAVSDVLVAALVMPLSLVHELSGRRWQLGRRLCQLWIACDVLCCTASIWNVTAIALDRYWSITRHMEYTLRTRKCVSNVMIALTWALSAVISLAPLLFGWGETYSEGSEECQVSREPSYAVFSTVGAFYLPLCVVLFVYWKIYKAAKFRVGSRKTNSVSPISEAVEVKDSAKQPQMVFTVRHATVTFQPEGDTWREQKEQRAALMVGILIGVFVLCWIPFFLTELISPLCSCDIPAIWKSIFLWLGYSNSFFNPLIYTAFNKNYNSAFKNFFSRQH

[21] = target: Photoreceptor-specific nuclear receptor (Homo sapiens, UniProt Q9Y5X4); type: functional, cell-based;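 further: CHO-S cells with Gal4-NCOR and VP16-NR2E3 two-hybrid luciferase reporter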
[22] = target: T5, Hepatocyte nuclear factor 4-alpha (Homo sapiens, UniProt P41235); type: functional, cell-based;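 further: biochemical luminescence-based dose-response counterscreen measuring inhibition of HNF4 dimerization, run alongside a screen for blockers of ABHD5–perilipin-5 interaction; split luciferase complementation of HNF4 fusion proteins in cell lysate measuring dimerization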
T5 sequence (P41235 whole entry): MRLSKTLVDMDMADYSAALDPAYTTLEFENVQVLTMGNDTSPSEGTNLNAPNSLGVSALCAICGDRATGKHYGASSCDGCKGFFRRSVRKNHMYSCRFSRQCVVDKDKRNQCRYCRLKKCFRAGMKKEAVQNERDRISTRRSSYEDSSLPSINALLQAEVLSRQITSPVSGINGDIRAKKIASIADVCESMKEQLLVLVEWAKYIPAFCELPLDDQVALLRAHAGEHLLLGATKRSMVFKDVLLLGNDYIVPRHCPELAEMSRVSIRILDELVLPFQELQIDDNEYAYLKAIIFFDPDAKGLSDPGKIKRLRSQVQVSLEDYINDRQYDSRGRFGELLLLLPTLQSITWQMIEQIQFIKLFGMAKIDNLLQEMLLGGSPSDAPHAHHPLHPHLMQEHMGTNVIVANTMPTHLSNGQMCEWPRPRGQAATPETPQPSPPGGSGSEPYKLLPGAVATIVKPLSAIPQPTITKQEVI

Fatty acid synthase [23] = target: T6, Fatty acid synthase (Homo sapiens, UniProt P49327); test: FAS thioesterase domain inhibitors, dose response, biochemical, endpoint fluorescence intensity, uHTS hits (AID 624327); type: functional;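 further: fluorescence from hydrolysis of an O-methyl fluorescein acyl ester substrate by the enzyme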
T6 sequence (P49327 whole entry, the tested form may be a part): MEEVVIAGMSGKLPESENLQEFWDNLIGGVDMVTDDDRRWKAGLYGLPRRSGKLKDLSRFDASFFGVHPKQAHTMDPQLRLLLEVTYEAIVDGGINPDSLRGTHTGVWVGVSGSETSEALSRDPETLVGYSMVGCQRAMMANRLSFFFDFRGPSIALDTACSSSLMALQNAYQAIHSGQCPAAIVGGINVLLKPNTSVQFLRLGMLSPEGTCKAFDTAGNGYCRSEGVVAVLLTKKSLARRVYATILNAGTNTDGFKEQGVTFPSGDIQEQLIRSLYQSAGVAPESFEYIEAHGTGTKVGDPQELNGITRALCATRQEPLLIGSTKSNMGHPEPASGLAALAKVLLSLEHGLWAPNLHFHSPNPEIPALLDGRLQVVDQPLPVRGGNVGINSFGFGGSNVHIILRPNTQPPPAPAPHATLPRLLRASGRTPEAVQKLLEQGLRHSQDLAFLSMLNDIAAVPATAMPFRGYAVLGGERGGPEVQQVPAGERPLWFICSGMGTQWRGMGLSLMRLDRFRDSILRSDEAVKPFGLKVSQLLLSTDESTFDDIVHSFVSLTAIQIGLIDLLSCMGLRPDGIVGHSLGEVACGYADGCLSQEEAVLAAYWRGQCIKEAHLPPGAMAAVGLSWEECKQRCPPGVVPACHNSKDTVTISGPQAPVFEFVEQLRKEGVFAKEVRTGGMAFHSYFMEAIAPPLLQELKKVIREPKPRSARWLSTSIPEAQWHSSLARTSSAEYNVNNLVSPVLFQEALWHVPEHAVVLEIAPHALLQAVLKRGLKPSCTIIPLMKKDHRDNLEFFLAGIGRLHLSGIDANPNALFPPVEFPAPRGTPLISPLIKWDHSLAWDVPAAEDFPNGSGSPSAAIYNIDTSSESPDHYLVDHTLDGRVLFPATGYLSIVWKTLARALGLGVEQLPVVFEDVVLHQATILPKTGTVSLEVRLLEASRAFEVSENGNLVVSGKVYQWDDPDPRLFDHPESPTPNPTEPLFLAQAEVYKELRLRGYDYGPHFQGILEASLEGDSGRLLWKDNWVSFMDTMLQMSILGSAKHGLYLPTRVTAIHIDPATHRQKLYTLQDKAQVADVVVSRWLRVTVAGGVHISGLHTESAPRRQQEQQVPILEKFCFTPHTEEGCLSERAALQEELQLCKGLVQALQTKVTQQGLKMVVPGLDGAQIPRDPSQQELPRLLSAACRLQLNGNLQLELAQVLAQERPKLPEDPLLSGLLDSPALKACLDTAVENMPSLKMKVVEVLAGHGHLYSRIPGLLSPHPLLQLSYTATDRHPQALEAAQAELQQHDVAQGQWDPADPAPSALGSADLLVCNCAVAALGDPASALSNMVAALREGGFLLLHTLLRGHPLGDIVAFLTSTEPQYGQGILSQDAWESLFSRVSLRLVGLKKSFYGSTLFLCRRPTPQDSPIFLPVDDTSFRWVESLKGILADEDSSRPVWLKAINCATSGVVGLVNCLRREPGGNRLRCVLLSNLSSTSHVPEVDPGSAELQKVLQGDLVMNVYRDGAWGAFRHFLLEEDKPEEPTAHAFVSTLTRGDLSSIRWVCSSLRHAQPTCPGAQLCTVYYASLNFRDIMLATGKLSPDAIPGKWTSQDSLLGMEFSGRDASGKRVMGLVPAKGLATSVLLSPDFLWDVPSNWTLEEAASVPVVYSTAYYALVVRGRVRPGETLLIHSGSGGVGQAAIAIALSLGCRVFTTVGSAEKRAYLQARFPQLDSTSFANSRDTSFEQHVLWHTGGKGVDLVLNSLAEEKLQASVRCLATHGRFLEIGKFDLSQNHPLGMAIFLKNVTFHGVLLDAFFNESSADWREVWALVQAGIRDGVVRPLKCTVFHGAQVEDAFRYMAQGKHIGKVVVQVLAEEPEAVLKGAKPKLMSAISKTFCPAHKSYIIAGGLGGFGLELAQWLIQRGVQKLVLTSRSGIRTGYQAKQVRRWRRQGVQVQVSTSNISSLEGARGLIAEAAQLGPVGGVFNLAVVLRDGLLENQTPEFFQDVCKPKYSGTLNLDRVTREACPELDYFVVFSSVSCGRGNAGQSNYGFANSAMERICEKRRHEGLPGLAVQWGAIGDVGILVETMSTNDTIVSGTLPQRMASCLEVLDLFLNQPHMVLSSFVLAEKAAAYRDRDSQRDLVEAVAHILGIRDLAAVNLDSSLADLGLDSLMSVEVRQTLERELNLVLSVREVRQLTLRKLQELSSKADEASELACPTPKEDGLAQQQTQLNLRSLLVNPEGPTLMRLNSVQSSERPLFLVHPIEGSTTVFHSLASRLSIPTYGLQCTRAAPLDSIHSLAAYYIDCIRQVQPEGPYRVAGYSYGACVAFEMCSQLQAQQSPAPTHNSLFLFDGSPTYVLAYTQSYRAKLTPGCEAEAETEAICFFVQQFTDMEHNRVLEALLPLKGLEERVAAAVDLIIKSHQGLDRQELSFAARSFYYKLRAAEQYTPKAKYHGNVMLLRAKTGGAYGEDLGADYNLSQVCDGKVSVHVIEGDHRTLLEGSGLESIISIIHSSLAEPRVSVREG

Fatty acid synthase [24] = target: T6, Fatty acid synthase; test: FAS thioesterase domain inhibitors, dose response, biochemical, kinetic fluorescence intensity (AID 624326); type: functional;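 further: rate of fluorescence rise from hydrolysis of a fluorogenic O-methyl fluorescein ester substrate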

## COc1ccc(-c2cc(C(F)(F)F)nc(SCC(=O)NCc3cnn(C)c3C)n2)cc1OC
[1]
  EC50: 16.3 µM (not active)

## COC(=O)c1sc2nc(-c3ccccc3)nc(N3CCN(C)CC3)c2c1C
[2]
  EC50: > 20 µM (not active)
[3]
  EC50: > 20 µM (not active)

## Cc1ccc(CNC(=O)C(Cc2ccccc2)NS(=O)(=O)c2cccs2)cc1 (stereo not drawn)
[4]
  AC50: 58 µM (active)

## OCCN1CCN(c2nc(-c3ccccc3)nc3c2oc2ccccc23)CC1
[2]
  EC50: 7.2 µM (active)
[3]
  EC50: 10.2 µM (active)

## O=C(Nc1cccnc1Cl)c1cc(-c2cccc(O)c2)on1
[5]
  IC50: > 66.6 µM (inactive)
[6]
  IC50: 8.84 µM (active)

## CCOC(=O)c1ccc(NC(=O)c2c(N)n(Cc3ccccc3)c(=O)[nH]c2=O)cc1
[5]
  IC50: > 66.6 µM (inactive)
[6]
  IC50: 1.43 µM (active)

## CC(c1nccs1)N(C)C(=O)CCc1nnc(Cc2c[nH]c3ccccc23)o1 (stereo not drawn)
[7]
  IC50: > 67.5 µM (inactive)
[8]
  EC50: > 67.5 µM (inactive)

## C[C@@H]1CCCCO[C@H](CN(C)C(=O)Nc2cccc3ccccc23)[C@H](C)CN([C@@H](C)CO)C(=O)c2cc(NS(=O)(=O)c3ccc(Cl)cc3)ccc2O1
Paired box protein Pax-8
  AC50: 5.39 µM (active)
[9]
  AC50: 16.8 µM (active)
[10]
  AC50: 51.8 µM (active)
[11]
  AC50: 55.2 µM (active)
[12]
  AC50: 59.6 µM (active)

## C=CCn1c(NC(=O)c2ccccc2)c(C#N)c2nc3ccccc3nc21
fMet-Leu-Phe receptor
  Ki: > 66.7 µM (inactive)

## CC(=O)N1CCN(Cc2nc3cc(NC(=O)NC4CCCCC4)ccc3n2C)CC1
[4]
  AC50: 81 µM (active)

## CCCN(CCC)C(S)=Nc1cc(C(=O)OC)ccc1C(=O)OC
[1]
  EC50: 343 µM (not active)
Cells [13]
  EC50: > 350 µM (not active)
Cells [14]
  EC50: > 350 µM (not active)

## CC1=CC(C)(C)Nc2ccc(OC(=O)c3ccco3)cc21
[2]
  EC50: 7.05 µM (active)
[3]
  EC50: 6.79 µM (active)
[15]
  EC50: 7.39 µM (active)
[16]
  EC50: 5.59 µM (active)
[17]
  IC50: 44.7 µM (inactive)

## CCOC(=O)Cc1csc(NC(=S)NC(=O)c2ccc(Cl)cc2)n1
[18]
  EC50: 0.55 µM (active)
[17]
  IC50: > 80 µM (inactive)

## CCCCCCCC/C=C\CCCCCCCC(=O)O [OLEIC ACID]
[18]
  EC50: 10.4 µM (active)
P388/ADR
  GI50: 78.9 µM (inactive)
SN12K1
  GI50: 101 µM (inactive)
P388
  GI50: 115 µM (inactive)

## COc1ccc(-c2cn3cccnc3n2)cc1NC(=O)CC(C)C
fMet-Leu-Phe receptor
  Ki: > 66.7 µM (inactive)

## CCCOc1ccc(C2C(C(=O)c3ccco3)=C(O)C(=O)N2CCCn2ccnc2)cc1 (stereo not drawn)
fMet-Leu-Phe receptor
  Ki: > 66.7 µM (inactive)

## CSC(=Nc1ccccc1)N=C(SCc1ccccc1)N(C)C
[19]
  EC50: > 92.4 µM (inactive)
Mu-type opioid receptor
  EC50: > 92.4 µM (inactive)
[20]
  EC50: > 92.4 µM (inactive)
[21]
  IC50: 2.61 µM (active)
[22]
  IC50: 3.95 µM (active)
Fatty acid synthase [23]
  IC50: 1.37 µM (active)
Fatty acid synthase [24]
  IC50: 1.04 µM (active)
Paired box protein Pax-8
  AC50: 4.55 µM (active)
